Values of other authors in patent US8153661B2, “Controlled delivery system” (Durect Corporation, priority 2004, dated 2012).

Q: With CCCCN1CCCCC1C(=O)Nc1c(C)cccc1C (stereo not shown) [bupivacaine] as the molecule, how does the “published estimated toxic plasma concentration ranges” value read?
A: The value was 1 to 4 µg/mL.
